Reference: ChEMBL document CHEMBL1201862, “PubChem BioAssay data set” (2004)
Calls of active or inactive are those of the source.

Assays:
Protein skinhead-1 = molecular target: T1, Protein skinhead-1 (Caenorhabditis elegans, UniProt P34707); assay type: functional
T1 sequence (P34707 whole entry): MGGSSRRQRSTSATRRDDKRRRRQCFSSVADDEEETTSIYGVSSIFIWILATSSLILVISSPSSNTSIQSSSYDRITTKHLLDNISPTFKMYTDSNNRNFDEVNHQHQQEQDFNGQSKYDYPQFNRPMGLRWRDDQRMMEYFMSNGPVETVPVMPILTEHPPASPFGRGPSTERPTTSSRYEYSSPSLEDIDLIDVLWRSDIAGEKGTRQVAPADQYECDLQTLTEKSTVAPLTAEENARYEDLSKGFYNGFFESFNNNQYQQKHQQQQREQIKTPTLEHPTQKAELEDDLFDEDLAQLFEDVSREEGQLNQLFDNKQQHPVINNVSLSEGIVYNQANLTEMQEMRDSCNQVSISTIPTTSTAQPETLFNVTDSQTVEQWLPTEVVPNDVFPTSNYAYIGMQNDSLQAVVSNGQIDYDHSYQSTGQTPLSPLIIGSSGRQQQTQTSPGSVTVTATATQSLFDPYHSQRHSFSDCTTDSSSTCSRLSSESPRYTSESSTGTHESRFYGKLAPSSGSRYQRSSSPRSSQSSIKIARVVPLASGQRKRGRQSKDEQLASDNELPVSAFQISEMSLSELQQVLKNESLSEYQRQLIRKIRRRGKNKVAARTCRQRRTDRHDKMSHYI

Troponin, cardiac muscle = Troponin, cardiac muscle (Homo sapiens, UniProt P19429+P45379+P63316); assay: Fluorescence-based biochemical high throughput dose response assay for activators of the calcium sensitivity of cardiac Regulated Thin Filaments (RTF). [Related pubchem assays (depositor defined):AID493008, AID493018, AID504382, AID504383]; assay type: protein-complex assay
cells [1] = assay type: functional
[2] = Vero E6 cell cytotoxicity, dose response, cytotoxicity control for non-replicating M. tuberculosis project, secondary assay (AID 492998); assay type: functional, VeroE6; details: Vero C1008
[3] = NIH-3T3 fibroblast cytotoxicity, dose response, cytotoxicity control, cell-based, fluorescence, Alamar Blue, secondary assay (AID 2327); assay type: functional;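 also: NIH-3T3 mouse fibroblasts cultured with fluconazole at 8 µg/mL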
[4] = HepG2 cell cytotoxicity, dose response, cytotoxicity control for non-replicating M. tuberculosis project (AID 489018); assay type: functional; details: Mycobacterium tuberculosis
[5] = THP-1 cell cytotoxicity, dose response, cytotoxicity control for non-replicating M. tuberculosis project (AID 489025); assay type: functional
[6] = C. albicans growth with fluconazole, confirmation, fluorescence, retest (AID 2467); assay type: functional, cell-based
[7] = molecular target: T2, Heat shock factor protein 1 (Mus musculus, UniProt P38532); assay: HSF1 potentiators in luciferase reporter cells, confirmation, cell-based, NIH3T3, luminescence, dose retest (AID 435004); assay type: functional;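 also: stress induced by proteasome inhibitor MG132 added 30 min after compound; luciferase reporter driven by HSF1 response element in NIH3T3 cells; actives raise luminescence as potentiators of the MG132 stress response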
T2 sequence (P38532 whole entry): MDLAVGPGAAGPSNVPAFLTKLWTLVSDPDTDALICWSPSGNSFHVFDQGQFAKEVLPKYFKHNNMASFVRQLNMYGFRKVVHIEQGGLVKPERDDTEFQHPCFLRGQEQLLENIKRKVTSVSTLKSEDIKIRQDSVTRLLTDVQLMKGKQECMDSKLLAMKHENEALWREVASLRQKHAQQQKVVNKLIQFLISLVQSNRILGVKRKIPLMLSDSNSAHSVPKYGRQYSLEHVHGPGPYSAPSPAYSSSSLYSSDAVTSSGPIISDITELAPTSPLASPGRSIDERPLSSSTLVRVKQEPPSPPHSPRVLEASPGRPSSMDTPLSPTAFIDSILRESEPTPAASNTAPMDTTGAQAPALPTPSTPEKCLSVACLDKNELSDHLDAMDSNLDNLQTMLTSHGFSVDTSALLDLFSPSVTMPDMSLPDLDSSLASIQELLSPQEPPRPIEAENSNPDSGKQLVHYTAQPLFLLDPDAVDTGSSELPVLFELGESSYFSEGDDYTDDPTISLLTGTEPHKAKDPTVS

[8] = molecular target: G-protein coupled receptor 55 (Homo sapiens, UniProt Q9Y2T6); assay: GPR55 agonists via beta-arrestin recruitment, primary screen, imaging, U2OS cells, beta-arrestin-GFP redistribution (AID 1961); assay type: functional
G-protein coupled receptor 55, sequence (Q9Y2T6 whole entry): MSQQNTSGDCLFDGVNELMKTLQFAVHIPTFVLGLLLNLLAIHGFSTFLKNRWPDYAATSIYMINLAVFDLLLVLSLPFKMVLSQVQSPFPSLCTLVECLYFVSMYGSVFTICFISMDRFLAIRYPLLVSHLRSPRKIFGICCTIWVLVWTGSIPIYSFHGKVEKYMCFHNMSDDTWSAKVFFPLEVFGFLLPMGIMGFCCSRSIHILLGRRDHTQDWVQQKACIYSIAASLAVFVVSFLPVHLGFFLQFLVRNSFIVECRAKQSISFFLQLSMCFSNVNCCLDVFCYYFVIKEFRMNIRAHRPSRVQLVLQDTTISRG

[9] = molecular target: Glyceraldehyde-3-phosphate dehydrogenase (Homo sapiens, UniProt P04406)
Glyceraldehyde-3-phosphate dehydrogenase, sequence (P04406 whole entry): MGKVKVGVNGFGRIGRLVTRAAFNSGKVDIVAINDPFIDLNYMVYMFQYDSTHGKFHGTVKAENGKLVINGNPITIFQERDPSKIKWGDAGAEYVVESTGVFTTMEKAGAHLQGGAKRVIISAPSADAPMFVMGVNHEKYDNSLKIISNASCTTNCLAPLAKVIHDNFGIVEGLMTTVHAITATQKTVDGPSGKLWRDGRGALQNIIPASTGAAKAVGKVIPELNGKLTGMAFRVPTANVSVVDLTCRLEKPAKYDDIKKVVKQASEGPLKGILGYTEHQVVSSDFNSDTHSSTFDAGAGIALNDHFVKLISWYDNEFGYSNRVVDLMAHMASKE

[10] = molecular target: T3, Alkaline phosphatase, tissue-nonspecific isozyme (Homo sapiens, UniProt P05186); assay: human TNAP enzyme inhibitors, SAR follow-up, biochemical, luminescent, dose response (AID 1056)
T3 sequence (P05186 whole entry): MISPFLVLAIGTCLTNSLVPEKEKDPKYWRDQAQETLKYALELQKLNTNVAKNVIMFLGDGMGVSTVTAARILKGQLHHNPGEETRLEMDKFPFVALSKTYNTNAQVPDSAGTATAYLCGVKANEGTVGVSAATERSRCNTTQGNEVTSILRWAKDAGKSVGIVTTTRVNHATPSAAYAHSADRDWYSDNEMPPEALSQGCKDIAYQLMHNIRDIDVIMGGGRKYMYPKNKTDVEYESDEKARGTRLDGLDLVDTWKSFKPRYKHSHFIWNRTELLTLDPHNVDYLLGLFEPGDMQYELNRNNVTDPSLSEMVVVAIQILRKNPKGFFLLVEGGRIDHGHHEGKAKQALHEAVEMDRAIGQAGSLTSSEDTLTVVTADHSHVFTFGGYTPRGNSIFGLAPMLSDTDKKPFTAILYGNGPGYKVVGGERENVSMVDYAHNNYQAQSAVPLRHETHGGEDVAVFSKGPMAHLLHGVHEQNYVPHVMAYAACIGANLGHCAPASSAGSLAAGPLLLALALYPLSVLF

Streptococcus = assay: Group A Streptococcus viability loss, dose response, counter-screen for streptokinase expression inhibitor project, luminescence, BacTiterGlo (AID 1915); assay type: functional, organism-based;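 also: potency for reduction of bacterial viability or growth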
[11] = tested on: Streptococcus sp. 'group A'; assay: growth inhibition of control SK(-) GAS strain, dose response, counter-screen for streptokinase expression inhibitor project, luminescence, kanamycin, BacTiterGlo, confirmation (AID 1900); assay type: functional, organism-based
Galanin receptor type 3 = molecular target: T4, Galanin receptor type 3 (Homo sapiens, UniProt O60755); assay: Fluorescence-based cell-based primary high throughput dose response assay to identify antagonists of the Galanin Receptor 3 (GalR3).; assay type: functional
T4 sequence (O60755 whole entry): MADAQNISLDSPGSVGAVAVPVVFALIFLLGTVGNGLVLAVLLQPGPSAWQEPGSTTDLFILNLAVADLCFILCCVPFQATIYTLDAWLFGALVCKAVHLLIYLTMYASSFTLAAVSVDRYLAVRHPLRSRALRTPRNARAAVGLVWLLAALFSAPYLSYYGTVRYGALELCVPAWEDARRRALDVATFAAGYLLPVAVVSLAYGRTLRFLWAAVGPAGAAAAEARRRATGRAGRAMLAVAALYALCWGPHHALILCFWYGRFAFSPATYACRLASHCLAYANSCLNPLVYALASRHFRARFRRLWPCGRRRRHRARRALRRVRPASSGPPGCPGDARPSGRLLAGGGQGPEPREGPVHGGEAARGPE

[12] = molecular target: T5, Corticotropin-releasing factor receptor 2/Corticotropin-releasing factor-binding protein (Homo sapiens, UniProt P24387+Q13324); assay: activators of CRF receptor 2 with binding protein – uHTS hits, confirmation (AID 602473); assay type: functional; details: read-out: EC50_Mean
T5 sequence (Q13324 whole entry): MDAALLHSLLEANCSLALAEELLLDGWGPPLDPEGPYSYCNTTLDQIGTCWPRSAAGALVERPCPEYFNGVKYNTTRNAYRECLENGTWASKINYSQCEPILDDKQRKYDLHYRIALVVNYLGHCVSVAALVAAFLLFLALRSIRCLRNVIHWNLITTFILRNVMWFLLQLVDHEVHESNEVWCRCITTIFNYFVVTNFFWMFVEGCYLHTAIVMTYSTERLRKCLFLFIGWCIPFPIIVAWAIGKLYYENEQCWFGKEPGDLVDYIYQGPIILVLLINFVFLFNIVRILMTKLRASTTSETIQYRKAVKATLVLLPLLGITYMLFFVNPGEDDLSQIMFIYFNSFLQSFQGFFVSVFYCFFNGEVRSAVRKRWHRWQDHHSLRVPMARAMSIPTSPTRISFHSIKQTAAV
T5 sequence (P24387 whole entry): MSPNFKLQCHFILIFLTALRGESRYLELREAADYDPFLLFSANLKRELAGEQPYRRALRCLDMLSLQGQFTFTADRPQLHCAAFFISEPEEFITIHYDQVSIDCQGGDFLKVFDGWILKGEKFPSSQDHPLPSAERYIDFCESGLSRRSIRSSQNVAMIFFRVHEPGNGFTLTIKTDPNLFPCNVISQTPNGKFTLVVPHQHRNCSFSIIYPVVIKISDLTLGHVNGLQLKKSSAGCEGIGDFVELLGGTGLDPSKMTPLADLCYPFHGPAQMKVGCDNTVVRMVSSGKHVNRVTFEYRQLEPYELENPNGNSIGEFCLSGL

cells [13] = assay type: functional, cell-based; details: HEK-CNG
CAAX prenyl protease 2 = molecular target: T6, CAAX prenyl protease 2 (Saccharomyces cerevisiae S288c, UniProt Q03530); assay type: biochemical
T6 sequence (Q03530 whole entry): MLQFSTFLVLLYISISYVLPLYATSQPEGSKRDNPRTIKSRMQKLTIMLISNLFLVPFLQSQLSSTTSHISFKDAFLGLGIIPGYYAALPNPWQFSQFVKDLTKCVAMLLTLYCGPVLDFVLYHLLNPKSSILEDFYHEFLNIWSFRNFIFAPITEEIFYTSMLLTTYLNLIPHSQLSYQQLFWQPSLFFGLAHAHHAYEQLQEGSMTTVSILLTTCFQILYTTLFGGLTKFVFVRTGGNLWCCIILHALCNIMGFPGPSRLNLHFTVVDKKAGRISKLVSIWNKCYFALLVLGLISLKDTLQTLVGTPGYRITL

[14] = molecular target: Alkaline phosphatase, placental type (Homo sapiens, UniProt P05187); assay: PLAP enzyme inhibitors, confirmation, biochemical, luminescence (AID 1512); assay type: functional
Alkaline phosphatase, placental type, sequence (P05187 whole entry): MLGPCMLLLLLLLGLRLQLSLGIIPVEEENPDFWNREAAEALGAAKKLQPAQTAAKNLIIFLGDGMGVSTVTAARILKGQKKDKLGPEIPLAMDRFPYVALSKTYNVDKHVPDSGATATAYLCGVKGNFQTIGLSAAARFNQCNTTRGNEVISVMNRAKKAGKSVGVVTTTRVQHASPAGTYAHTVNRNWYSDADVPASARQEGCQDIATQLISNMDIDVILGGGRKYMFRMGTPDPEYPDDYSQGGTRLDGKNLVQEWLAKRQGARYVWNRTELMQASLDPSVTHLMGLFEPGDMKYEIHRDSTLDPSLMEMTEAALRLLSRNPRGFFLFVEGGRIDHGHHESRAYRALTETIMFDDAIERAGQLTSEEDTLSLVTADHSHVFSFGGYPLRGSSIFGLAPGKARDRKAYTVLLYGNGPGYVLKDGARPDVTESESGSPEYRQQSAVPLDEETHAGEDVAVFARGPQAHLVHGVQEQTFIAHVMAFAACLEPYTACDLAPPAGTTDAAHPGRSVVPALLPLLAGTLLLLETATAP

[15] = A cytotoxicity screen of small molecule inhibitors of the PhoP region in Salmonella typhi identified in the primary screen. [Related pubchem assays: 1850, 1864, 1985 ]; assay type: functional
[16] = molecular target: T7, Microphthalmia-associated transcription factor (Homo sapiens, UniProt O75030); assay: TRPM1 promoter luciferase signal decrease, dose response, MITF inhibitor project, cell-based, SK-MEL-5, cherry-picked, set 3 (AID 493073); assay type: functional
T7 sequence (O75030 whole entry): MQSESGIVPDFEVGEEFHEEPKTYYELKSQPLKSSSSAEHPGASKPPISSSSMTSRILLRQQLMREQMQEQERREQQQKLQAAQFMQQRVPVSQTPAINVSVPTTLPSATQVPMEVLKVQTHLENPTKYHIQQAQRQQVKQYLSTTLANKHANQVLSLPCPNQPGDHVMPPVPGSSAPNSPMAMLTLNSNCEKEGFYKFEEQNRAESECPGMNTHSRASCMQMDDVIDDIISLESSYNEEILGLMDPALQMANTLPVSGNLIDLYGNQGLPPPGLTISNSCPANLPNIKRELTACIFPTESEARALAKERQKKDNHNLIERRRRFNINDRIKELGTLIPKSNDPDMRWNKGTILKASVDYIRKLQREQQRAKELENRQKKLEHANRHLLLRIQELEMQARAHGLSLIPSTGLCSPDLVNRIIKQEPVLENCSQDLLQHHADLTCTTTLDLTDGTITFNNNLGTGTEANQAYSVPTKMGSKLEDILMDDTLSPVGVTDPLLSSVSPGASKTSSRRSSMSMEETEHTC

Trypsin = Trypsin (Sus scrofa, UniProt P00761); assay: porcine trypsin inhibitors, dose response, selectivity assay for Rce1 protease inhibitor project, biochemical, quenched peptide fluorescence, cherry-pick (AID 488789)
Trypsin, sequence (P00761 whole entry): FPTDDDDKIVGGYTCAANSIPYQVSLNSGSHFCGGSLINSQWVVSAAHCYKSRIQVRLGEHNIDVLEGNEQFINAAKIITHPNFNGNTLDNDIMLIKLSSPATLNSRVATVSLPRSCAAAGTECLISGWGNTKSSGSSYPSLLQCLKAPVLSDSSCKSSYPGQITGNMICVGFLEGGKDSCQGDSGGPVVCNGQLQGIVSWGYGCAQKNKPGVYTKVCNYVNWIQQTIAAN

Beta-galactosidase = Beta-galactosidase (Escherichia coli, UniProt Q8VNN2); assay: Dose response counterscreen for EBI2 assay utilizing the enzyme, b-galactosidase.; assay type: functional
Beta-galactosidase, sequence (Q8VNN2 whole entry): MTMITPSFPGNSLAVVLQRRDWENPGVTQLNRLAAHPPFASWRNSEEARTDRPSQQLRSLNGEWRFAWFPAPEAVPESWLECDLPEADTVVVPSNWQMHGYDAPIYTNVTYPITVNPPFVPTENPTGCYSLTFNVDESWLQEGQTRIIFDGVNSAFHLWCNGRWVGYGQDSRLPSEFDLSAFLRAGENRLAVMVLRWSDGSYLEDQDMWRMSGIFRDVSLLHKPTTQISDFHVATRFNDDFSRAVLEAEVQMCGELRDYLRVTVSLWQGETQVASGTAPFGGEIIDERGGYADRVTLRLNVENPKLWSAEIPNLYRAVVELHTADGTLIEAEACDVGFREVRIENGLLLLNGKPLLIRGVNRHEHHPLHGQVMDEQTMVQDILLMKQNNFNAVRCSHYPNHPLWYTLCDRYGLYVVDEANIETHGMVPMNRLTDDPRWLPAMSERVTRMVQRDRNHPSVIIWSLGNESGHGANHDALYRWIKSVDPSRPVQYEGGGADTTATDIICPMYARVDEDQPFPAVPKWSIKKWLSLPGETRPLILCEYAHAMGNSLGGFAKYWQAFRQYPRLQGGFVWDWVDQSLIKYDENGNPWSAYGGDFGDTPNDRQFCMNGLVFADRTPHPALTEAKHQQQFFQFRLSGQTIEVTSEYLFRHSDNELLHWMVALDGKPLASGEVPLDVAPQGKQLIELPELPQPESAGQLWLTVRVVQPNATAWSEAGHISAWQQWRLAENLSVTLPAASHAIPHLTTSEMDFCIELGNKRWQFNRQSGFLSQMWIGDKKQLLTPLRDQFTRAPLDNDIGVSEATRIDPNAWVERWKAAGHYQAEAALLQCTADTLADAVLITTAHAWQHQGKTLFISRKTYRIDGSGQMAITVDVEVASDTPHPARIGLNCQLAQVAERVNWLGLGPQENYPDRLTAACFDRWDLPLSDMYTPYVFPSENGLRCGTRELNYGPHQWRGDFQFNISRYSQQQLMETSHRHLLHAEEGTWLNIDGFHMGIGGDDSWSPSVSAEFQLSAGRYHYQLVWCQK

CCN(CC)c1ccc(/C=c2\sc3nc4ccccc4n3c2=O)c(O)c1
IC50 (Protein skinhead-1): > 100 µM (inactive) | EC50 (Troponin, cardiac muscle): 2.78 µM (active)

COc1cc(OC)cc(C(=O)Oc2c(CN3CCOCC3)cc(Cl)c3cccnc23)c1
IC50 (cells [1]): 15.4 µM (active) | CC50 [2]: 3.74 µM (active) | EC50 [3]: > 150 µM (inconclusive) | CC50 [4]: 17 µM (active) | CC50 [5]: 7.27 µM (active) | EC50 [6]: 2.94 µM (active)

CCOC(=O)c1sc2nc(C)nc(SCC(=O)NC3CCS(=O)(=O)C3)c2c1C (stereo unspecified)
EC50 [7]: > 260 µM (inactive) | EC50 (Troponin, cardiac muscle): > 71.5 µM (inactive)

Cc1ccccc1OCCC(=O)Nc1cc(S(=O)(=O)N2CCOCC2)ccc1OC(C)C
EC50 [8]: 4.27 µM (active)

COc1ccc(OC)c(NS(=O)(=O)c2cccc3cccnc23)c1
IC50 [9]: > 100 µM (not active) | IC50 [10]: > 100 µM (inactive)

CCOC(=O)Cc1c(C)nc2c(-c3cccc(Br)c3)cnn2c1O
IC50 (cells [1]): 3.08 µM (active) | EC50 (Streptococcus): 6.07 µM (active) | CC50 [2]: 8.15 µM (active) | CC50 [4]: 16.4 µM (active) | CC50 [5]: 11.9 µM (active) | EC50 [11]: 3.46 µM (active)

Cc1cc(NC(=O)COC(=O)C(Cc2ccccc2)NC(=O)c2ccco2)no1 (stereo unspecified)
IC50 (Galanin receptor type 3): > 29.9 µM (inactive) | EC50 [12]: 4.49 µM (active) | EC50 (Troponin, cardiac muscle): > 71.5 µM (inactive) | EC50 (cells [13]): > 29.9 µM (inactive)

O=C1CCN(Cc2ccccc2)CCN1[C@H](CSc1ccccc1)Cc1ccccc1
AC50 (CAAX prenyl protease 2): 13.9 µM (active)

O=C(CN1CCCCC1)c1ccc(O)c(O)c1
IC50 [10]: 43.2 µM (active) | IC50 [14]: 67.5 µM (active)

O=C(Cn1cc(/C=C\[N+](=O)[O-])c2ccccc21)Nc1ccccc1
EC50 [15]: > 50 µM (active) | AC50 [16]: 7.45 µM (active)

COc1ccc(C(C(=O)NC2CCCCC2)N(C(=O)c2snc(C(N)=O)c2N)c2ccc(OC)cc2OC)cc1 (stereo unspecified)
AC50 (Trypsin): 21.6 µM (active) | AC50 (CAAX prenyl protease 2): 22.1 µM (active) | IC50 (Beta-galactosidase): > 80 µM (inactive)
